One assay deals with Neo16-bd. The experiment in a line: SPR binding of aminoglycosides to Neo16-bd aptamer. The settings on record: HBS-buffer; read-out: Kd, Neo16bd. As for the experimental part: Conditions: 10 mM HEPES (pH 7.4), 0.1 mM EDTA and NaCl as indicated.
The binding of aminoglycosides to RNA is likely to involve substantial ionic contributions and therefore should be strongly influenced by competing buffer ions. […] We studied the salt dependence of neomycin B binding to RBE3, RBE3-neg and Neo16-bd (FIG. 14) by varying the concentration of NaCl included in the injection buffer (10 mM HEPES, pH 7.4, 0.1 mM EDTA). […] This neomycin binding motif was obtained by in vitro selection under conditions of high ionic strength.
To further improve our understanding of specific aminoglycoside recognition, we have also included an artificial aminoglycoside receptor that was evolved in vitro to recognize an aminoglycoside. A number of RNA aptamers for small molecules have been reported in recent years. Among them are aptamers that recognize the aminoglycosides tobramycin, lividomycin and kanamycin.
For comparison, the corresponding values for AS-wt are also included.
(§1) General Procedures for SPR Binding Studies done in Example 5. Samples were prepared by serial dilutions from stock solutions in RNase free microfuge tubes (Ambion) and were centrifuged at 14000 rpm for degassing. Unless otherwise noted, all binding studies were carried out using HBS buffer (Pharmacia Biosensor AB) which was used as obtained. All procedures for binding studies were automated as methods using repetitive cycles of sample injection and regeneration. Typically, buffer was injected in the first two cycles to establish a stable baseline value. Samples were injected at a flowrate of […] using either the KINJECT command. All aminoglycoside samples were injected from autoclaved 7 mm plastic vials that were capped with pierceable plastic crimp caps. To minimize carry over, samples were injected in order of increasing concentration. The running buffer was identical to the injection buffer.
(In general: SPR reads the build-up and loss of mass on a sensor chip optically.)

Another assay has as its system AS-wt. The experiment in a line: SPR binding of aminoglycosides to decoding region A-site model AS-wt. Set-up: species or system E. coli. As to conditions: for RNA binding, affinity or specificity for AS-wt (in words): Example 4. The method, then: The RNA binding properties of 100-800 were analyzed using a surface plasmon resonance based assay that was recently developed in these laboratories. This assay allows the determination of both affinity and specificity of small molecule-RNA interactions. For the analysis, the compounds were injected over a matrix containing RNA that was immobilized through a biotin tag and the equilibrium binding values were recorded at various concentrations.
Non-linear curve fitting was then used to determine the values of the dissociation constants (KD). The specificity of binding, i.e. the ability to discriminate between different RNA sequences was evaluated by comparing the binding to the target sequence (AS-wt) and the negative control (AS-U1495A). The ratio of KD(AS-U1495A) to KD(AS-wt) was taken to be a representation of the specificity of the binding event.
For the quantitative measurement of aminoglycoside binding to these sequences, we utilized our recently developed SPR-based assay. Biotinylated derivatives of all sequences were prepared by in vitro transcription in the presence of guanosine 5'-monophosphorothioate followed by alkylation with a biotin iodoacetamide derivative. The RNA conjugates were then immobilized onto streptavidin coated SPR-sensorchips for analysis.
In the same manner as illustrated for paromomycin, a panel of aminoglycosides was screened and the results are compiled in the table of FIGS. 46 and 47. In addition to the naturally occuring aminoglycoside antibiotics, some of the compounds in FIG. 46 are synthetically derived, unnatural aminoglycosides. The number of independent determinations for each dissociation constant ranged from 1-3. […] All data were recorded under near physiological salt conditions (HBS-buffer: 150 mM NaCl, 10 mM HEPES, pH7.4, 3.4 mM EDTA) unless noted otherwise. Data points were taken at concentrations ranging from […]. Below this concentration range, surface transport limitations prevent the attainment of equilibrium.
Plasmon resonance and antimicrobial testing for Example 4. Synthesis of the biotinylated RNA and surface plasmon resonance detected binding experiments were performed as described vida supra. Solution conditions: 150 mM NaCl, 10 mM HEPES (pH 7.4), 3.4 mM EDTA. KD determination from the binding curves.
The fitting routine of the program kaleidagraph was used for all calculations. The starting values for a and b were set to 1 and 0 respectively. The number of KD values used in the fitting was adjusted depending on the observed range of equivalents bound but generally varied from 3 to 4.
as §1, with “buffer. Expected values for the equilibrium response of one equivalent of analyte were calculated from the relative molecular weight of the analyte and the immobilized RNA ligand in each flowcells and adjusted with a correction factor of 0.76 which arises from the different molar refractive indices of RNA and the analyte. […]” for “buffer.”

Assay [1] has as its system Escherichia coli (ATCC 25922). The experiment in a line: minimum inhibitory concentration, broth dilution technique. It counts as cell-based. The settings on record: E. coli, liquid culture. An excerpt:
We reasoned that this modification would provide the cleanest test for probing the ionic contribution, since hydrogen bond donor abilities, electronegativity and steric demand are similar for both functional groups. In order to learn how well the model system correlates with in vivo activity, we checked the new compounds for antibacterial activity against three bacterial strains using the disc method (Kirby-Bauer technique). The minimum inhibitory concentrations (MICs) of the compounds were then determined using the broth dilution technique. For antibiotic testing protocols, see: (a) Disk testing protocols: Phillips, I.; Williams, D., in Laboratory Methods in Antimicrobial Chemotherapy, Garrod, L. (ed.) Churchill Livingstone Press: Edinburgh, 1978, pp. 3-30. (b) MIC determination: Waterworth, P. M., in Laboratory Methods in Antimicrobial Chemotherapy, Garrod, L. (ed.) Churchill Livingstone Press: Edinburgh, 1978, pp. 31-40; Barry, A. L. The Antimicrobic Susceptibility Test: Principles and Practice, Lea and Febiger: Philadelphia (1976). (c) Standards: Lorian, V., Antibiotics in Laboratory Medicine (2nd. ed.), Williams and Wilkins: Baltimore, 1986.
FIG. 39A gives the zone diameters measured for the three bacterial strains. The zone diameters measured for the strains with known antibiotics are well within the accepted limits. […] It is worth noting that some testing protocols recommend overnight growth of the cultures, rather than the minimum time required to obtain good growth of the control. MIC values were tested for several of the control antibiotics using overnight growth, and the MIC values observed were 2-4× greater than those observed for 4-6 hour growth.
Minimal Inhibitory Concentration (MIC) testing. E. coli ATCC 25922 was grown in Mueller-Hinton broth (cation-adjusted, BBL Microbiology Systems) to an optical density of approx. 0.5 (absorbance read at 600 nm), then diluted to an OD600 of 0.1. Samples of antibiotic were prepared in Mueller-Hinton broth, typically a series of 2-fold dilutions from […]. […] The absorbance of each sample was read (1=600 nm), and MIC was considered to be the lowest antibiotic concentration at which the absorbance was less than 1% of the no-antibiotic control.
(Dilution methods test growth across graded concentrations, often in twofold steps.)

Assay [2] has as its system bacterial protein synthesis. The settings on record: cited from earlier work.
In another assay the test system is wt-RRE-II. The experiment in a line: SPR binding of aminoglycosides to wt-RRE-II. The settings on record: comparison of aminoglycosides. The arrangement: species or system HIV-1. The method, then: FIGS. 9A and 9B illustrate neomycin B binding to RBE3, RBE3-neg and wt-RRE-II. (A) Semilogarithmic plot. […] Conditions: pH 7.0, 10 mM HEPES, 150 mM NaCl, 0.1 mM EDTA, […].
FIGS. 10A and 10B illustrate paromomycin binding to RBE3, RBE3-neg and wt-RRE-II. (A) Semilogarithmic plot; the dashed line indicates the binding of neomycin B to wt-RRE-II for comparison (B) Scatchard plot. […] Conditions: pH 7.0, 10 mM HEPES, 150 mM NaCl, 0.1 mM EDTA, […].
FIG. 11 illustrates the kinetic stability of wt-RRE-II complexes with neomycin B vs. paromomycin. […] Data points were taken after 1 min of dissociation.
Binding of the aminoglycoside to all three RNA oligonucleotides is observed starting in the low nanomolar concentration range and is non-saturable over the concentration range investigated. […] The high degree of non-specific binding is not surprising considering that aminoglycosides are highly charged polycations that tend to associate nonspecifically with the polyanionic phosphate backbone of RNA. […] Data points corresponding to 0.5 or more equivalents of neomycin B represent equilibrium values and can be analyzed with respect to stoichiometry and affinity of aminoglycoside binding. […] Both sequences bind one molecule of neomycin B with submicromolar affinity followed by weaker association with several additional equivalents of the antibiotic.
Samples were prepared by serial dilutions from stock solutions in RNase free microfuge tubes (Ambion) and were centrifuged at 14000 rpm for degassing. Buffers were filtered through sterile 0.2 &m nylon membranes (Nalgene) under vacuum, except for BIA certified HBS buffer (Pharmacia Biosensor AB) which was used as obtained. All procedures for binding studies were automated as methods using repetitive cycles of sample injection and regeneration. Typically, buffer was injected in the first two cycles to establish a stable baseline value. Samples were injected at a flowrate of 5-10 &L/min using either the KINJECT or the COINJECT command. All aminoglycoside and Rev27 samples were injected from autoclaved 7 mm plastic vials that were capped with pierceable plastic crimp caps. To minimize carry over, samples were injected in order of increasing concentration. The running buffer was identical to the injection buffer, except for the salt dependence study where a single running buffer was used for all injections. Expected values for the equilibrium response of one equivalent of analyte were calculated from the relative molecular weight of the analyte and the immobilized RNA ligand in each flowcells. These values were adjusted by multiplying with a factor of 0.8 or 0.57 for Rev27 or aminoglycosides respectively. These factors arise from the different molar refractive indices of RNA and the analyte and were determined from the Scatchard plot x-axis intercepts of the 1:1 binding isotherms for Rev27 and neomycin B.
Binding Studies with Aminoglycosides.
Neomycin B sulfate (Fluka) was converted to the free base by passing it through Amberlite IRA 400 (OH-- form) and purified by ion exchange chromatography on Dowex 1-X2 100 to remove neomycin C; the purity of neomycin B was verified by NMR in D2 O. Paromomycin sulfate was obtained from Sigma and used as received. Samples were prepared by dilution from 10 mM stock solutions in injection buffer (10 mM HEPES, pH 7.4, 150 mM NaCl, 3.4 mM EDTA). Data points were taken after an association phase of 30 min. A 2 min regeneration pulse of 150 mM Na2 SO4 in injection buffer was used between injections. […]

Entries after “also recorded” stand apart in the source; their conditions may differ. *1 amine or outer side, *2 acyl side, *3 side chain or, on linkers, in order; H or OH if unused. Where a SMILES comes first, the peptide text is derived from it. Bridges are numbered along the chain shown (N, C = ends). [ ]: non-standard residue; d: D form. The star is where a group is joined. X2 = NC1=N[C@@H]([C@H](N[*:1])C(=O)[*:2])C[C@H](O)N1; ΔAla(Z-3-ureido) = NC(=O)N/C=C(\N)C(=O)O; X1 = NCC[C@@H](O)[C@H](N)CC(=O)*; Dap = NC[C@H](N)C(=O)O

The term Kd denotes the equilibrium constant for the complex coming apart. In the case of `NCCCNCCO[C@H]1[C@@H](O)[C@H](O[C@@H]2[C@@H](O)[C@H](N)C[C@H](N)[C@H]2O[C@H]2O[C@H](CN)[C@@H](O)[C@H](O)[C@H]2N)O[C@@H]1CO` [Compound 600, 3"-O-2-N-(3-propylamino)-ethylamino ribostamycin], at Neo16-bd, the Kd was < 10 nM. The “RNA binding, affinity or specificity for AS-wt (in words)” value (“RNA binding, affinity or specificity” below) in the assay on AS-wt was “diminishing returns on the affinity without affecting the specificity; also recorded: significantly lower binding affinities toward the AS wt RNA than neomycin”. The “antibacterial activity / MIC compared with neomycin B (in words)” value in assay [1] was “very nearly the same anti microbial activity as neomycin B”.
As to `NCCO[C@H]1[C@@H](O)[C@H](O[C@@H]2[C@@H](O)[C@H](N)C[C@H](N)[C@H]2O[C@H]2O[C@H](CN)[C@@H](O)[C@H](O)[C@H]2N)O[C@@H]1CO` [Compound 500, 3"-O-Ethyl-2-amino ribostamycin], the Kd on Neo16-bd was < 10 nM. Further, in the assay on AS-wt, the “RNA binding, affinity or specificity” value is recorded as “binding affinity goes up by an order of magnitude but specificity is unaffected; also recorded: significantly lower binding affinities toward the AS wt RNA than neomycin”. In addition, the “antibacterial activity / MIC compared with neomycin B (in words)” value in assay [1] is reported as “very nearly the same anti microbial activity as neomycin B”.
With `CN(CC(=O)O)NC(=O)C[C@H](N)C[C@@H](O)CN` [Negamycin], in assay [2], the “effect on bacterial protein synthesis (in words)” value is “induces miscoding during translation”.
On to `[H]/N=C(/N)N[C@H]1[C@H](O)[C@@H](O)[C@H](O[C@@H]2O[C@@H](C)[C@](O)(C=O)[C@H]2O[C@@H]2O[C@@H](CO)[C@H](O)[C@@H](O)[C@@H]2NC)[C@@H](N/C(N)=N\[H])[C@@H]1O` [Streptomycin], for which the “relative binding affinity for wt-RRE-II (in words)” value with wt-RRE-II is “weakest”. Further, the “RNA binding, affinity or specificity” value in the assay with AS-wt is “much reduced binding affinity and no specificity”. For the same compound, the “specificity for AS-wt over negative controls (in words)” value in the assay on AS-wt (Example 5, HBS-buffer) was “does not show any specificity for AS-wt”.
For the compound `NCC[C@@H](O)[C@H](N)CC(=O)N[C@H]1CNC(=O)[C@H]([C@H]2C[C@H](O)NC(N)=N2)NC(=O)/C(=C/NC(N)=O)NC(=O)[C@H](CO)NC(=O)[C@H](CO)NC1=O` [Tuberactinomycin A] (X1-[Dap]SS[ΔAla(Z-3-ureido)][X2]; lactam 1-C), the “effect on bacterial protein synthesis (in words)” value in assay [2] is “inhibits both initiation and elongation steps of bacterial protein synthesis”.

(Values after patent US6120997A, “Nucleic acid binders having an hydroxyamine motif” (The Scripps Research Institute, priority 1998, dated 2000).)
